Source: article PMC8379256, “A xanthene derivative, DS20060511, attenuates glucose intolerance by inducing skeletal muscle-specific GLUT4 translocation in mice” (Communications Biology, 2021)
Several values for one entry are separate records, joined by “and”; a condition that tells them apart may be missing. Equal values may be shown once.

Key:
L6-GLUT4myc myotubes [1] = experiment: GLUT4 translocation: cell surface GLUT4myc by anti-Myc antibody assay in L6-GLUT4myc myotubes; type: cell-based, rat; set-up: key to GLUT4 translocation: fold of vehicle-treated group; details: for Ratio: GLUT4 translocation normalized to vehicle; for A - background / A: Abs. (450 nm): GLUT4 translocation
Method: (§1) The L6-GLUT4myc rat myoblast cell line was obtained from Dr. Amira Klip and Dr. Philip Bilan, through a license granted by The Hospital for Sick Children, 555 University Avenue, Toronto, Ontario, Canada M5G 1 × 8; or purchased from Kerafast, Boston, MA (ESK202)[43]. The 3T3-L1-GLUT4myc fibroblast cell line was provided by Dr. Tomoyuki Yuasa, Tokushima University[44]. L6-GLUT4myc myoblasts were grown in MEMα (32571036, Thermo Fisher Scientific, Waltham, MA) supplemented with 10% FBS and 1% antibiotics, and then induced to differentiate into myotubes in MEMα supplemented with 2% FBS and 1% antibiotics for 5–8 days. 3T3-L1-GLUT4myc fibroblasts were induced to differentiate into adipocytes as described previously,[45] with minor modifications. Briefly, cells were grown to confluence in growth medium: DMEM (10569010, Thermo Fisher Scientific) supplemented with 10% FBS and 1% antibiotics, and then induced to differentiate into adipocytes in growth medium supplemented with 1 μM dexamethasone, 2 μM rosiglitazone, 0.5 mM isobutylmethylxanthine, and 10 μg mL^−1 insulin for 2 days. The adipocytes were then cultured in growth medium supplemented with 10 μg mL^−1 insulin for a few days before being used for the experiments.
Cell surface GLUT4 levels in the L6-GLUT4myc myoblasts and myotubes were determined by antibody binding assay as described previously[43],[44], with minor modifications. Briefly, cells in a 96- or 24-well plate were starved in serum-free MEMα (0.1% BSA and 1% antibiotics) for 3 h and then treated with the indicated concentrations of DS20060511 and/or insulin for 30 min at 37 °C. After fixation with 4% paraformaldehyde, the cells were incubated with 1% glycine in PBS at 4 °C for 10 min, and blocked with 10% normal goat serum and 3% BSA in PBS at 4 °C for 30 min. The cells were then incubated with anti-c-Myc antibody (sc-40, 1:500) diluted with blocking buffer at 4 °C for 1 h, washed with cold PBS(+), incubated with HRP-conjugated anti-mouse IgG diluted with blocking buffer at 4 °C for 30 min, and then washed again. SuperSignal ELISA Pico Chemiluminescent Substrate (Thermo Fisher Scientific) was added and the luminescent signal was measured. To investigate GLUT4 translocation in the 3T3-L1-GLUT4myc adipocytes, the cells were prepared in a 24-well plate, and anti-c-Myc antibody (sc-789, 1:1000), HRP-conjugated anti-rabbit IgG and SIGMAFAST OPD regent (Sigma–Aldrich) were added for optical detection of the cell surface GLUT4myc levels. The GLUT4 translocation activity was normalized to that in the vehicle-treated group.

L6-GLUT4myc myotubes [2] = experiment: In vitro cellular 2-DG uptake in L6-GLUT4myc myotubes; type: cell-based, rat; details: for Ratio: 2-DG uptake normalized to vehicle; for A - background / A: dpm: 2-DG uptake
Method: as §1
(§2) L6-GLUT4myc myotubes and 3T3-L1-GLUT4myc adipocytes were incubated in the wells of a 24-well plate containing serum-free medium for 3 h at 37 °C and then incubated in glucose-free medium for 30 min at 37 °C. The cells were treated with the indicated concentrations of DS20060511 or insulin for 30 min at 37 °C, followed by the addition of 1 mM 2-deoxy-D-glucose (2-DG) and 0.3 μCi mL^−1 [^3H]-2-DG for 10 min. 2-DG uptake was measured with a liquid scintillation counter (Tri-Carb 2810TR, PerkinElmer, Waltham, MA) and normalized to the level in the vehicle-treated group.

[3] = tested on: 3T3-L1-GLUT4myc adipocytes; experiment: In vitro cellular 2-DG uptake in 3T3-L1-GLUT4myc adipocytes; type: cell-based; details: for Ratio: 2-DG uptake normalized to vehicle; for A - background / A: dpm: 2-DG uptake
Method: as §1, §2

[4] = tested on: IRβ, IRS1, Akt (Ser473), AS160; experiment: Phosphorylation of IRβ, IRS1, Akt and AS160 in triceps surae muscle (immunoblot); type: in vivo, mouse; details: skeletal muscle, DS20060511 10 mg kg−1 or insulin 5 U kg−1; for phosphorylation of IRβ-subunit and IRS1: Fig. 4a; for phosphorylation of Akt and AS160: Fig. 4b
Method: The tissue sample was homogenized with a Polytron homogenizer and lysed in a lysis buffer (25 mM Tris-HCl, pH 7.4, 100 mM NaF, 50 mM Na4P2O7, 10 mM EGTA, 10 mM EDTA, 10 mM Na3VO4, 1 mM PMSF, and 1% NP-40) on ice, and the lysate was centrifuged at 17,860 × g for 10 min at 4 °C. The supernatant was collected and the protein concentrations were determined by BCA assay (Thermo Fisher Scientific). Immunoprecipitation of IRβ and IRS1 was performed as described previously, using specific antibodies against IRβ (sc-711, Santa Cruz Biotechnology, Dallas, TX), IRS1 (06-248, Merck Millipore, Burlington, MA), and for detection of phosphotyrosine (05-321, Merck Millipore). Five milligrams of the extracts were incubated with specific antibodies against IRS1 for 1 h at 4 °C. Then, protein G-Sepharose was added, followed by incubation for 2 h at 4 °C. After washing three times, the immunocomplexes were subjected to immunoblotting.
Phosphorylated or total protein of IRβ and IRS1 was resolved on 7% SDS-PAGE and analyzed using specific antibodies against IRβ, IRS1, and phosphotyrosine. Analyses were also conducted for phosphorylated Akt (1:2000), Akt (1:2,000), AS160 (1:1,000), phospho-AS160 (1:1,000), AMPKα (1:1,000), phospho-AMPKα (1:1,000), GLUT4 (1:200), Na,K-ATPaseα (1:1,000), GAPDH (1:1,000) by immunoblotting with specific antibodies after the tissue lysates were resolved on SDS-PAGE and transferred to a PVDF membrane using Trans-Blot Turbo transfer system (Bio-Rad Laboratories, Hercules, CA). Bound antibodies were detected with HRP-conjugated secondary antibodies using ECL detection reagents (GE Healthcare, Chicago, IL).

COc1ccc2c(C)c(C(=O)O)ccc2c1C1C2=C(CC(C)(C)CC2=O)OC2=C1C(=O)CC(C)(C)C2 [DS20060511]
GLUT4 translocation on co-treatment with insulin (L6-GLUT4myc myotubes [1]; 30 μM DS20060511 plus insulin, also at saturating insulin concentration, Fig. 4e): additive increase of GLUT4 translocation | GLUT4 translocation (L6-GLUT4myc myotubes [1]; DS20060511 30 μM, Latrunculin B 0 nM, normalized to vehicle): 1.94 and 1.98 and 1.81 | GLUT4 translocation (L6-GLUT4myc myotubes [1]; DS20060511 30 μM, Latrunculin B 10 nM): 2.29 and 2.23 and 2.10 | GLUT4 translocation (L6-GLUT4myc myotubes [1]; DS20060511 30 μM, Latrunculin B 30 nM): 1.81 and 2.08 and 1.91 | GLUT4 translocation (L6-GLUT4myc myotubes [1]; DS20060511 30 μM, Latrunculin B 100 nM): 2.37 and 2.30 and 2.39 | GLUT4 translocation (L6-GLUT4myc myotubes [1]; DS20060511 30 μM, Latrunculin B 200 nM): 2.39 and 2.15 and 2.06 | Ratio (L6-GLUT4myc myotubes [1]; DS20060511 0.1 μM): 1.26 and 1.33 | Ratio (L6-GLUT4myc myotubes [1]; DS20060511 1 μM): 1.71 and 1.72 and 1.90 | Ratio (L6-GLUT4myc myotubes [1]; DS20060511 10 μM): 2.15 and 2.14 and 2.27 | A - background (L6-GLUT4myc myotubes [1]; DS20060511 0.1 μM): 0.100 and 0.106 | A - background (L6-GLUT4myc myotubes [1]; DS20060511 1 μM): 0.137 and 0.151 and 0.136 | A: Abs. (450 nm) (L6-GLUT4myc myotubes [1]; DS20060511 1 μM): 0.227 and 0.241 and 0.226 | A - background (L6-GLUT4myc myotubes [1]; DS20060511 10 μM): 0.170 and 0.180 and 0.171 | A: Abs. (450 nm) (L6-GLUT4myc myotubes [1]; DS20060511 10 μM): 0.260 and 0.270 and 0.261 | GLUT4 translocation (in words) (L6-GLUT4myc myotubes [1]; differentiated L6-GLUT4myc myotubes, Fig. 1b): increased GLUT4 translocation in differentiated L6-GLUT4myc myotubes in a concentration-dependent manner | Ratio (L6-GLUT4myc myotubes [2]; DS20060511 0.1 μM): 1.12 and 1.13 and 1.11 | Ratio (L6-GLUT4myc myotubes [2]; DS20060511 1 μM): 1.53 and 1.44 and 1.45 | Ratio (L6-GLUT4myc myotubes [2]; DS20060511 10 μM): 1.59 and 1.82 and 1.79 | A - background (L6-GLUT4myc myotubes [2]; DS20060511 0.1 μM): 1376 dpm and 1354 dpm and 1361 dpm | A: dpm (L6-GLUT4myc myotubes [2]; DS20060511 0.1 μM): 1481 dpm and 1459 dpm and 1466 dpm | A - background (L6-GLUT4myc myotubes [2]; DS20060511 1 μM): 1752 dpm and 1767 dpm and 1863 dpm | A: dpm (L6-GLUT4myc myotubes [2]; DS20060511 1 μM): 1857 dpm and 1872 dpm and 1968 dpm | A - background (L6-GLUT4myc myotubes [2]; DS20060511 10 μM): 2208 dpm and 2181 dpm and 1933 dpm | A: dpm (L6-GLUT4myc myotubes [2]; DS20060511 10 μM): 2313 dpm and 2286 dpm and 2038 dpm | 2-DG uptake (in words) (L6-GLUT4myc myotubes [2]; L6-GLUT4myc myotubes, Fig. 1d): significantly increased 2-DG uptake in a concentration-dependent manner | Ratio ([3]; DS20060511 0.1 μM): 1.50 and 1.09 and 1.18 | Ratio ([3]; DS20060511 1 μM): 1.43 and 1.24 and 1.47 | Ratio ([3]; DS20060511 10 μM): 1.53 and 1.62 and 1.75 | A - background ([3]; DS20060511 0.1 μM): 846 dpm and 912 dpm and 1164 dpm | A: dpm ([3]; DS20060511 0.1 μM): 1342 dpm and 1408 dpm and 1660 dpm | A - background ([3]; DS20060511 1 μM): 957 dpm and 1138 dpm and 1108 dpm | A: dpm ([3]; DS20060511 1 μM): 1453 dpm and 1634 dpm and 1604 dpm | A - background ([3]; DS20060511 10 μM): 1255 dpm and 1357 dpm and 1185 dpm | A: dpm ([3]; DS20060511 10 μM): 1751 dpm and 1853 dpm and 1681 dpm | phosphorylation of IRβ-subunit and IRS1 [4]: no such phosphorylation of these proteins was observed | phosphorylation of Akt and AS160 [4]: no such effect

Insulin: Insulin (Humulin, Eli Lilly) in the in vivo experiments; Insulin solution human (I9278, Sigma–Aldrich) in the in vitro experiments
Ratio (L6-GLUT4myc myotubes [1]; Insulin 1 nM): 1.41 and 1.40 and 1.33 | Ratio (L6-GLUT4myc myotubes [1]; Insulin 10 nM): 1.91 and 1.96 and 1.84 | Ratio (L6-GLUT4myc myotubes [1]; Insulin 100 nM): 2.47 and 2.48 and 2.46 | A - background (L6-GLUT4myc myotubes [1]; Insulin 1 nM): 0.111 and 0.106 and 0.112 | A: Abs. (450 nm) (L6-GLUT4myc myotubes [1]; Insulin 1 nM): 0.201 and 0.196 and 0.202 | A - background (L6-GLUT4myc myotubes [1]; Insulin 10 nM): 0.156 and 0.146 and 0.152 | A: Abs. (450 nm) (L6-GLUT4myc myotubes [1]; Insulin 10 nM): 0.246 and 0.236 and 0.242 | A - background (L6-GLUT4myc myotubes [1]; Insulin 100 nM): 0.196 and 0.194 and 0.195 | GLUT4 translocation (L6-GLUT4myc myotubes [1]; Insulin 100 nM, Latrunculin B 0 nM, normalized to vehicle): 3.11 and 3.04 and 3.07 | GLUT4 translocation (L6-GLUT4myc myotubes [1]; Insulin 100 nM, Latrunculin B 10 nM): 3.38 and 3.09 and 3.08 | GLUT4 translocation (L6-GLUT4myc myotubes [1]; Insulin 100 nM, Latrunculin B 30 nM): 2.53 and 2.30 and 2.42 | GLUT4 translocation (L6-GLUT4myc myotubes [1]; Insulin 100 nM, Latrunculin B 100 nM): 2.62 and 2.09 and 2.39 | GLUT4 translocation (L6-GLUT4myc myotubes [1]; Insulin 100 nM, Latrunculin B 200 nM): 2.01 and 1.93 | Ratio (L6-GLUT4myc myotubes [2]; Insulin 1 nM): 1.26 and 1.31 and 1.36 | Ratio (L6-GLUT4myc myotubes [2]; Insulin 10 nM): 1.62 and 1.58 and 1.67 | Ratio (L6-GLUT4myc myotubes [2]; Insulin 100 nM): 1.81 and 1.94 and 2.02 | A - background (L6-GLUT4myc myotubes [2]; Insulin 1 nM): 1594 dpm and 1651 dpm and 1530 dpm | A: dpm (L6-GLUT4myc myotubes [2]; Insulin 1 nM): 1699 dpm and 1756 dpm and 1635 dpm | A - background (L6-GLUT4myc myotubes [2]; Insulin 10 nM): 1918 dpm and 2031 dpm and 1966 dpm | A: dpm (L6-GLUT4myc myotubes [2]; Insulin 10 nM): 2023 dpm and 2136 dpm and 2071 dpm | A - background (L6-GLUT4myc myotubes [2]; Insulin 100 nM): 2363 dpm and 2459 dpm and 2203 dpm | A: dpm (L6-GLUT4myc myotubes [2]; Insulin 100 nM): 2468 dpm and 2564 dpm and 2308 dpm | Ratio ([3]; Insulin 1 nM): 12.31 and 11.72 and 12.41 | Ratio ([3]; Insulin 10 nM): 13.43 and 13.26 and 13.52 | Ratio ([3]; Insulin 100 nM): 12.21 and 13.79 and 13.94 | A - background ([3]; Insulin 1 nM): 9081 dpm and 9610 dpm and 9537 dpm | A: dpm ([3]; Insulin 1 nM): 9577 dpm and 10106 dpm and 10033 dpm | A - background ([3]; Insulin 10 nM): 10270 dpm and 10470 dpm and 10402 dpm | A: dpm ([3]; Insulin 10 nM): 10766 dpm and 10966 dpm and 10898 dpm | A - background ([3]; Insulin 100 nM): 10682 dpm and 10795 dpm and 9457 dpm | A: dpm ([3]; Insulin 100 nM): 11178 dpm and 11291 dpm and 9953 dpm | 2-DG uptake (in words) ([3]; differentiated 3T3-L1-GLUT4myc adipocytes, Fig. 1e): increase 2-DG uptake | phosphorylation of IRβ-subunit and IRS1 [4]: phosphorylated | phosphorylation of Akt and AS160 [4]: induced phosphorylation of Akt and AS160
